Source: publication PMC9898036, “VIP152 is a selective CDK9 inhibitor with pre-clinical in vitro and in vivo efficacy in chronic lymphocytic leukemia” (Leukemia, 2022)

Tests used:
[1] = molecular target: DMPK2 (Homo sapiens, UniProt Q6DT37); assay: KINOMEscan: DMPK2; assay type: binding; settings: 1000 nM, read-out: Percent Control
[2] = system: Imidazoline I2, Central; assay: Eurofins Diversity Panel; assay type: binding; settings: rat
[3] = molecular target: Leukotriene, Cysteinyl CysLT1 (Homo sapiens, UniProt Q9Y271); assay: Eurofins Diversity Panel; assay type: binding; settings: hum, Conc. 10 μM
[4] = molecular target: MRCKA (Homo sapiens, UniProt Q5VT25); assay: KINOMEscan: MRCKA; assay type: binding; settings: 1000 nM, read-out: Percent Control
[5] = molecular target: Androgen (Testosterone) AR (Rattus norvegicus, UniProt P15207); assay: Eurofins Diversity Panel; assay type: binding; settings: Conc. 10 μM
[6] = molecular target: LATS1 (Homo sapiens, UniProt O95835); assay: KINOMEscan: LATS1; assay type: binding; settings: 1000 nM, read-out: Percent Control
[7] = molecular target: SYK (Homo sapiens, UniProt P43405); assay: KINOMEscan: SYK; assay type: binding; settings: 100 nM, read-out: Percent Control
[8] = molecular target: Muscarinic M2 (Homo sapiens, UniProt P08172); assay: Eurofins Diversity Panel; assay type: binding; settings: hum, Conc. 10 μM
[9] = molecular target: ERBB2 (Homo sapiens, UniProt P04626); assay: KINOMEscan: ERBB2; assay type: binding
Procedure: The structure and synthesis of VIP152 were recently described by Lücking et al.. (Fig. 1A); however, the selectivity of the molecule in cellular systems has yet to be explored. […] We also performed this experiment at 1000 nM, where CDK9 was inhibited at 99%. […] We found a strong concordance between our data and those of Lücking when comparing the most inhibited kinases. Potential off-target effects of VIP152 were next tested in vitro at a concentration of 10 µM for off-target activity against a broad range of receptors, transporters, ion channels, and enzymes (n = 138) using the Eurofins Diversity Panel.
Kinomescan Kinase Profiling Assay
Kinomescan Assay was performed at DiscoverRX and described in Fabian, et al. 2005, Nat.
Biotechnol. In brief, kinases were produced and subsequently tagged with DNA for qPCR detection.
Streptavidin-coated magnetic beads were bound to biotinylated kinase ligands to serve as a solid support.
VIP152 was dissolved in DMSO and tested across a 10 serial threefold dilution set and compared to a test compound and a DMSO control. Kinases which were inhibited by VIP152 would not be bound to the solid-support resulting in decreased substrate for the qPCR reaction. Kinome map was produced via TreeSpot Analysis from DiscoverRX. […]
NanoBRETTM Target Engagement Assay Protocol […]
HEK293 cells were grown to 70-80% confluence appropriately prior to assay and subsequently trypsinized. Lipid:DNA complexes were prepared as follows. A 10µg/mL solution of DNA in Opti-MEM without serum consisting of the following ratios of carrier DNA and DNA encoding NanoLuc fusion were prepared.
9.0µg/mL of Transfection Carrier DNA, 1.0µg/mL of NanoLuc fusion vector DNA, and 1mL of Opti-MEM without phenol red. The solution was mixed thoroughly. Next, 30µL of FuGENE HD Transfection Reagent was added into each mL of DNA mixture to form the lipid:DNA complex and mixed by inversion 10 times followed by a 20 minute incubation at room temperature. […]

[10] = molecular target: EGFR(L747-E749del, A750P) (Homo sapiens, UniProt P00533, A750P/DEL747-749); assay: KINOMEscan: EGFR(L747-E749del, A750P); assay type: binding; settings: 1000 nM, read-out: Percent Control
[11] = molecular target: MLK2 (Homo sapiens, UniProt Q02779); assay: KINOMEscan: MLK2; assay type: binding; settings: 1000 nM, read-out: Percent Control
[12] = system: treatment-naïve primary CLL samples; assay: Annexin V/propidium iodide flow cytometry; assay type: cell-based; settings: Homo sapiens; 10 treatment-naïve samples; read-out: IC50 (cytotoxic activity)
[13] = molecular target: EPHB6 (Homo sapiens, UniProt O15197); assay: KINOMEscan: EPHB6; assay type: binding; settings: 1000 nM, read-out: Percent Control
[14] = molecular target: CAMK2G (Homo sapiens, UniProt Q13555); assay: KINOMEscan: CAMK2G; assay type: binding; settings: 1000 nM, read-out: Percent Control
[15] = molecular target: Endothelin ETA (Homo sapiens, UniProt P25101); assay: Eurofins Diversity Panel; assay type: binding; settings: hum, Conc. 10 μM
[16] = system: OSU-CLL; assay: Annexin V/propidium iodide flow cytometry; settings: compared with HG-3 and MEC-1; 24, 48, 72 h
Procedure: HG-3, MEC-1, and OSU-CLL were cultured for 24, 48, and 72 h with VIP152 or DMSO.
MTS Proliferation Studies, Annexin V/PI Flow Cytometry
For apoptosis assays of primary CLL, cells were acquired under an institutional reviewer board-approved protocol with informed consent. Leukemia cells were isolated from whole blood utilizing RosetteSep Human B Cell Enrichment Cocktail ([sequence]). Stromal
coculture was done by plating HS-5 stromal cells (50% confluent) in a 6-well plate 24 hours before the addition of CLL cells. CLL cells were added to the plate with VIP152 and allowed to incubate for four hours upon which the cells were centrifuged and replated using 50% HS-5 conditioned media. Apoptosis was measured utilizing FITC-conjugated Annexin-V and Propidium Iodide (Leinco) on a Beckmann-Coulter Cytoflex. Primary samples were excluded from analysis if the viability of the DMSO group was <40% as defined by Annexin-V/Propdium Iodide-/- cells. Single-color controls were utilized for compensation using pooled primary cell sample heated for

[17] = molecular target: MEK5 (Homo sapiens, UniProt Q13163); assay: KINOMEscan: MEK5; assay type: binding; settings: 1000 nM, read-out: Percent Control
[18] = molecular target: CDC2L5 (Homo sapiens, UniProt Q14004); assay: KINOMEscan: CDC2L5; assay type: binding; settings: 1000 nM, read-out: Percent Control
[19] = molecular target: ACVRL1 (Homo sapiens, UniProt P37023); assay: KINOMEscan: ACVRL1; assay type: binding; settings: 1000 nM, read-out: Percent Control
[20] = molecular target: HPK1 (Homo sapiens, UniProt Q92918); assay: KINOMEscan: HPK1; assay type: binding; settings: 1000 nM, read-out: Percent Control
[21] = molecular target: CDK8 (Homo sapiens, UniProt P49336); assay: KINOMEscan: CDK8; assay type: binding; settings: 1000 nM, read-out: Percent Control
[22] = molecular target: FGFR4 (Homo sapiens, UniProt P22455); assay: KINOMEscan: FGFR4; assay type: binding; settings: 1000 nM, read-out: Percent Control
[23] = molecular target: INSR (Homo sapiens, UniProt P06213); assay: KINOMEscan: INSR; assay type: binding; settings: 1000 nM, read-out: Percent Control
[24] = molecular target: ERK5 (Homo sapiens, UniProt Q13164); assay: KINOMEscan: ERK5; assay type: binding; settings: 1000 nM, read-out: Percent Control

Sequence of ERBB2 (P04626 23-1255): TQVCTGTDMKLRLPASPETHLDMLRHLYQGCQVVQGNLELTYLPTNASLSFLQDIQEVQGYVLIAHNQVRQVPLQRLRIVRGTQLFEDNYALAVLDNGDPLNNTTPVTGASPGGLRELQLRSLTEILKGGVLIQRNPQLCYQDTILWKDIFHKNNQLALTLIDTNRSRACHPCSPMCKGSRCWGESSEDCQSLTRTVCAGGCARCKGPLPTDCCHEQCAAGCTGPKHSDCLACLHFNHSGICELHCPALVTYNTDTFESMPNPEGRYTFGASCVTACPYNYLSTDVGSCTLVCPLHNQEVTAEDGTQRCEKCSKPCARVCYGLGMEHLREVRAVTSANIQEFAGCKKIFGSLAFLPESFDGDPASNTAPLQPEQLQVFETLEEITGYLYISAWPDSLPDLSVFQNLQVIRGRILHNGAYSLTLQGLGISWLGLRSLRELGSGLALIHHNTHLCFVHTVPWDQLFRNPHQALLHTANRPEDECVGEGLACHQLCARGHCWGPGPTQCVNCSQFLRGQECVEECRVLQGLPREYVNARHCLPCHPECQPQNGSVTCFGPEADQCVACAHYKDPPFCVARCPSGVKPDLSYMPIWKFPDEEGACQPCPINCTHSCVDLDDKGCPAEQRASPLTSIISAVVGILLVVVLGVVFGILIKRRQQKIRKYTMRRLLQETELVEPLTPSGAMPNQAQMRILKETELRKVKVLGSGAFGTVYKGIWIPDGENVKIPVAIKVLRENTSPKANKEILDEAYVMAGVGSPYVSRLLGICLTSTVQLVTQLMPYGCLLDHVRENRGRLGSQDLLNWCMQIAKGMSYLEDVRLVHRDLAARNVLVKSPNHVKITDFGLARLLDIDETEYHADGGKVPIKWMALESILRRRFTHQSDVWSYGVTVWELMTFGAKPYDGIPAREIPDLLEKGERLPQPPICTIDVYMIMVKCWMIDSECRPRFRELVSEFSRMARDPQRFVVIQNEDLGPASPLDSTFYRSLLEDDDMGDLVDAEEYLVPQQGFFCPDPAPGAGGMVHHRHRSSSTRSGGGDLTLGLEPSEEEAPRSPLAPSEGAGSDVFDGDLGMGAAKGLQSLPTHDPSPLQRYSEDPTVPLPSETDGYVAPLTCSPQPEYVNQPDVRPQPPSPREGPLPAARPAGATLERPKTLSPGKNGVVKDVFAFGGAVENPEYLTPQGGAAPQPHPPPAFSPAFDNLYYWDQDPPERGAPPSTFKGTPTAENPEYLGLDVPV
Sequence of EGFR(L747-E749del, A750P) (P00533 with tags, fused parts or gaps DEL747-749/A750P limits assumed): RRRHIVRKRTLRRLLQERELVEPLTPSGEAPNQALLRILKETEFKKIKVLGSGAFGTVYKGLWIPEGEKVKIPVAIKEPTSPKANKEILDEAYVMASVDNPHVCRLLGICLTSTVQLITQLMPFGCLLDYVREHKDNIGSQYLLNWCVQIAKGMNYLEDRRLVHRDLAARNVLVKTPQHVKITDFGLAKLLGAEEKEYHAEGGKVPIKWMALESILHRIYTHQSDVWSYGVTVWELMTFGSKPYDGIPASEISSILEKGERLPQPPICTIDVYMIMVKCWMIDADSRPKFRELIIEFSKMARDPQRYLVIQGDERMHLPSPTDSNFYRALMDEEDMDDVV
Sequence of ACVRL1 (P37023 22-503): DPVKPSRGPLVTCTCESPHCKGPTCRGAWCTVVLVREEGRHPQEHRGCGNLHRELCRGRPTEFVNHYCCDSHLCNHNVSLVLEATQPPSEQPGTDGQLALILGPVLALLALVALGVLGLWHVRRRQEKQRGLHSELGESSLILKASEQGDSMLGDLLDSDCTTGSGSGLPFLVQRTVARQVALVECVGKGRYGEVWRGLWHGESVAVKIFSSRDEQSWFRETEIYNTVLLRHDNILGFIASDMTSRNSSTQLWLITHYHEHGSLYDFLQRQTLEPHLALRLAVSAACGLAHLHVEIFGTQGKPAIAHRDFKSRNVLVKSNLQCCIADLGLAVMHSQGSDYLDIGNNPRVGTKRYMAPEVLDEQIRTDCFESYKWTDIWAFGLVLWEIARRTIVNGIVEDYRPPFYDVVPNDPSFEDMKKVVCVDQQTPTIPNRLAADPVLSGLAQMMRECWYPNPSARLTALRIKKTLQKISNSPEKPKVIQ
Sequence of LATS1 (O95835 whole entry): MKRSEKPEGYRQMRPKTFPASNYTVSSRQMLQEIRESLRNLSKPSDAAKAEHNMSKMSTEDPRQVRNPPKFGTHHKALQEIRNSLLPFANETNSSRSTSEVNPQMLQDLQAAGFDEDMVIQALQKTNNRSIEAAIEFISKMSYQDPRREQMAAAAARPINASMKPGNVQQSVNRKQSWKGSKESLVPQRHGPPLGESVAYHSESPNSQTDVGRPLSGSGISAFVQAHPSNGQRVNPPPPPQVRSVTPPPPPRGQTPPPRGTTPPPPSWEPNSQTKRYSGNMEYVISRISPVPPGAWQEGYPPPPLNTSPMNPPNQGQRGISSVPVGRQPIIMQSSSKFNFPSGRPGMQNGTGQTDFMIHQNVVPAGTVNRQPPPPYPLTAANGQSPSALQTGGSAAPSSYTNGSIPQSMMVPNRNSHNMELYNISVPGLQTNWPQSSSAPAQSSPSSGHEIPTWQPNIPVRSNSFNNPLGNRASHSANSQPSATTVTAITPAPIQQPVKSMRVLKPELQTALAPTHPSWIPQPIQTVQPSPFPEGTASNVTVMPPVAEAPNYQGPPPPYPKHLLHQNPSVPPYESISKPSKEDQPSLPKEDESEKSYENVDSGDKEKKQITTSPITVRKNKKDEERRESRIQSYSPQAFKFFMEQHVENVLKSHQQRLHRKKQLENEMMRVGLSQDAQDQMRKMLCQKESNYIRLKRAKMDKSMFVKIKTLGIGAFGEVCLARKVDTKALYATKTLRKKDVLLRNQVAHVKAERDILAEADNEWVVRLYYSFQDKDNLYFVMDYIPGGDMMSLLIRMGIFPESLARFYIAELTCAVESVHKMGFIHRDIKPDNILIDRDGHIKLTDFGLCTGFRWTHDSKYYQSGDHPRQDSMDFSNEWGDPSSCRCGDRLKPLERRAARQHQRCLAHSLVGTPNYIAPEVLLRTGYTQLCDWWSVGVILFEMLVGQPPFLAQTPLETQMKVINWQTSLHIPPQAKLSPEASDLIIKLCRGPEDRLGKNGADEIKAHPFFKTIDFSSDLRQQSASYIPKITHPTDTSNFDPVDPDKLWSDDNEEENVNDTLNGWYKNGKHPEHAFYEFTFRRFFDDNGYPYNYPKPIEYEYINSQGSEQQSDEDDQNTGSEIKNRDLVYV
Sequence of INSR (P06213 28-1382): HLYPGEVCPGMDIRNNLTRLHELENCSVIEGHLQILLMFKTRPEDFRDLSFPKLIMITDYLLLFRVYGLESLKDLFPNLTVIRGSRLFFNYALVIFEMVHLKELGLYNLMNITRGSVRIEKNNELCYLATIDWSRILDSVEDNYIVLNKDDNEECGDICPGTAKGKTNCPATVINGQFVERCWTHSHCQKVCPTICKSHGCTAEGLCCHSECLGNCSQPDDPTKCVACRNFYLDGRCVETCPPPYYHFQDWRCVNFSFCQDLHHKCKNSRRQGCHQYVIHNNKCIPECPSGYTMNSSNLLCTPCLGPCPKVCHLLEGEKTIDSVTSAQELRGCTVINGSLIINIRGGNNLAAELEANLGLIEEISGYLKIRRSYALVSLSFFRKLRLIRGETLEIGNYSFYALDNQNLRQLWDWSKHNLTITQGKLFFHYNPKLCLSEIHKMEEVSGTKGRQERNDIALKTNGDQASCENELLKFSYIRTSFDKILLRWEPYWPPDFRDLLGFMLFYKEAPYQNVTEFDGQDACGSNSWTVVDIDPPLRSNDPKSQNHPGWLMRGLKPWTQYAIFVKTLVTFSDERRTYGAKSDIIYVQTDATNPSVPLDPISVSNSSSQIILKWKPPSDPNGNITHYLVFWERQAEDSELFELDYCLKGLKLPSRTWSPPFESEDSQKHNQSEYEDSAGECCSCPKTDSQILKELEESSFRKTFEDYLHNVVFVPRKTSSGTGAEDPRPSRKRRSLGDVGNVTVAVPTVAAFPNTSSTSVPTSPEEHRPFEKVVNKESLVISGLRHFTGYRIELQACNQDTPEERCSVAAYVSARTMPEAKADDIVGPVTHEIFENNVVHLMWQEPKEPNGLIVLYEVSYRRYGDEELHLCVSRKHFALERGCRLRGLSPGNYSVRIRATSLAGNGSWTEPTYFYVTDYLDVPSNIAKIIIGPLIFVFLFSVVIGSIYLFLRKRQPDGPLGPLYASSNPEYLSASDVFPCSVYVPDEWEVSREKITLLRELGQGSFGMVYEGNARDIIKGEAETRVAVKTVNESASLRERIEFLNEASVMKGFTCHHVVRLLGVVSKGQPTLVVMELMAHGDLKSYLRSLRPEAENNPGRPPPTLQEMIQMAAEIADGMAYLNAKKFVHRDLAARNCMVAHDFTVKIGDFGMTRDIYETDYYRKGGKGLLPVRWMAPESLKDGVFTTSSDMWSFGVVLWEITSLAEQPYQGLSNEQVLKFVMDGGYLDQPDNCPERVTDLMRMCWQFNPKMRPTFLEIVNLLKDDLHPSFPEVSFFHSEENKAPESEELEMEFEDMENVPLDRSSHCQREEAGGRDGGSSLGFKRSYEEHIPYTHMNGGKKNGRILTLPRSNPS
Sequence of CDK8 (P49336 whole entry): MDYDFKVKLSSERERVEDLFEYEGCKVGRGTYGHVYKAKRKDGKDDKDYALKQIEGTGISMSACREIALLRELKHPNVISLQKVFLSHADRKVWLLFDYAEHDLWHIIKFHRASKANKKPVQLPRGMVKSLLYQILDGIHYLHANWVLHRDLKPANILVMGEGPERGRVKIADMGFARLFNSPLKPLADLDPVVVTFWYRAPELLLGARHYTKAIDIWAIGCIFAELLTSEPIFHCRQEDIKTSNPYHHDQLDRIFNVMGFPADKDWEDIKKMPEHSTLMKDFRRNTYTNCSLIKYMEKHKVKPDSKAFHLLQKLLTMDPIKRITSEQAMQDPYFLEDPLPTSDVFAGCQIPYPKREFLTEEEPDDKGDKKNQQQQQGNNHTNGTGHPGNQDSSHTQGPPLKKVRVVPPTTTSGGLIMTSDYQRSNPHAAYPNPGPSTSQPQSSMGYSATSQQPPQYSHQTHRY

## COc1cc(F)ccc1-c1cc(Nc2cc(CS(C)(=N)=O)ccn2)ncc1F (stereo not shown) [VIP152]
[1]
  remaining binding at 1 µM: 88%
[2]
  IC50: 1400 nM
  Ki: 930 nM
[2]; Conc. 10 μM
  % Inh.: 82%
[3]
  inhibition at 10 µM: -22%
[4]
  remaining binding at 1 µM: 82%
[5]
  inhibition at 10 µM: 35%
[6]
  remaining binding at 1 µM: 62%
[7]
  remaining binding at 0.1 µM: 100%
[8]
  inhibition at 10 µM: -5%
[9]; 100 nM, read-out: inhibition of ERBB2 relative to control
  inhibition at 0.1 µM: 65%
[9]; ERBB2, 100 nM, read-out: Percent Control
  remaining binding at 0.1 µM: 35%
[9]; ERBB2, 1000 nM, read-out: Percent Control
  remaining binding at 1 µM: 100%
[10]
  remaining binding at 1 µM: 80%
[11]
  remaining binding at 1 µM: 100%
[12]
  IC50: < 100 nM
[13]
  remaining binding at 1 µM: 13%
[14]
  remaining binding at 1 µM: 78%
[15]
  inhibition at 10 µM: 13%
[16]
  sensitivity to induction of apoptosis: highest sensitivity to induction of apoptosis
[17]
  remaining binding at 1 µM: 52%
[18]
  remaining binding at 1 µM: 13%
[19]
  remaining binding at 1 µM: 38%
[20]
  remaining binding at 1 µM: 85%
[21]
  remaining binding at 1 µM: 93%
[22]
  remaining binding at 1 µM: 76%
[23]
  remaining binding at 1 µM: 97%
[24]
  remaining binding at 1 µM: 95%
